Measurements reported in US5739300A, “Antiadhesive piperidine-and pyrrolidinecarboxylic acids” (Hoechst Aktiengesellschaft, priority 1995, dated 1998).

How the values were obtained:
E-selectin = biological target: T1, E-selectin (Homo sapiens, UniProt P16581); assay: HL60 cell adhesion assay on recombinant, soluble E-selectin-IgG1 fusion protein; type: cell-based; conditions: read-out: IC 50 values for E-selectin
T1 construct: genetically engineered soluble fusion proteins from the extracytoplasmic domain of E- or P-selectin in each case; made in house; host or cells: COS-7 cells (ATCC), transiently transfected; culture supernatant captured on anti-human IgG
T1 sequence (P16581 with tags, fused parts or gaps): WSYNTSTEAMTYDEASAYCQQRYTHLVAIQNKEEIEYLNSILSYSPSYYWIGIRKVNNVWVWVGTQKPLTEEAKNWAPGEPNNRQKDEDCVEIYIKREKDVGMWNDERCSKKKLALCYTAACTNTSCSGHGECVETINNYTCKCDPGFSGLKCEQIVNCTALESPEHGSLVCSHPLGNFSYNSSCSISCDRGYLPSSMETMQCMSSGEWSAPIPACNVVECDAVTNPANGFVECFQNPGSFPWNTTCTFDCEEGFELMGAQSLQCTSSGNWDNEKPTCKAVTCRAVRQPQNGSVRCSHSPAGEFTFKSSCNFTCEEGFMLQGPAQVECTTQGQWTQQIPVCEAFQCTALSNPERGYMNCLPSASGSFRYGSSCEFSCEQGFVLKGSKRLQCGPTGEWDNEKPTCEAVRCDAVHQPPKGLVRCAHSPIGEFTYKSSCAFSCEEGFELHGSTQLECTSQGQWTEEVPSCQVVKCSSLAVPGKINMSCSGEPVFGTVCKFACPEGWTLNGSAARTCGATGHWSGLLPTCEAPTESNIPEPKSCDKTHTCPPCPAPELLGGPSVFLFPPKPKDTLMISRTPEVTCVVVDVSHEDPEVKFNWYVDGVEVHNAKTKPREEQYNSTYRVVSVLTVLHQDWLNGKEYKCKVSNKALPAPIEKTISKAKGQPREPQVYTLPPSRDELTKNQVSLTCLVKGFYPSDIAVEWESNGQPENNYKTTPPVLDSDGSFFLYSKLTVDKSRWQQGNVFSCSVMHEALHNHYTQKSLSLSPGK
From the text: (§1) Primary assays for the investigation of the action of the compounds of the present invention for cell adhesion to recombinant, soluble selectin fusion proteins.
(§2) In order to test the activity of the compounds according to the invention on the interaction between the E- and P-selectins (old nomenclature ELAM-1 and GMP-140) with their ligands, an assay is used which is only specific for one of these interactions in each case. The ligands are supplied in their natural form as surface structures on promyelocytic HL60 cells. As HL60 cells have ligands and adhesion molecules of very different specificity, the desired specificity of the assay can only be produced by means of the binding component. The binding components used were genetically engineered soluble fusion proteins from the extracytoplasmic domain of E- or P-selectin in each case and the constant region of a human immunoglobulin of the subclass IgG1.
Preparation of L-selectin-IgG1
To prepare soluble L-selectin-IgG1 fusion protein, the genetic construct "ELAM-Rg" published by Walz et al., 1990 was used.
For expression, the plasmid DNA was transfected in COS-7 cells (ATCC) by means of DEAE-dextran (Molecular biological methods: see Ausubel, F. M., Brent, R., Kingston, R. E., Moore, D. D., Seidman, J. G., Struhl, K. and Smith, J. A. 1990. Current Protocols in Molecular Biology, John Wiley, New York). Seven days after transfection, the culture supernatant is recovered, freed from cells and cell fragments by centrifugation and transferred to 25 mM HEPES pH 7.0, 0.3 mM PMSF, 0.02% sodium azide and kept at +4° C. (Walz, G., Aruffo, A., Kolanus, W., Bevilacqua, M. and Seed, B. 1990. Recognition by ELAM-1 of the sialyl-Lex determinant on myeloid and tumor cells. Science 250, 1132-1135.)
(§3) Carrying out the HL60 cell adhesion assays on recombinant, soluble adhesion molecules
(§4) 1. 96-well microtiter test plates (Nunc Maxisorb) are incubated at room temperature for 2 hours with 100 μl of a goat anti-human IgG antibody (Sigma) diluted (1+100) in 50 mM tris pH 9.5. After removing the antibody solution, washing is carried out once with PBS.
(§5) 2. 150 μl of the blocking buffer are left in the wells for 1 hour at room temperature. The composition of the blocking buffer is: 0.1% gelatin, 1% BSA, 5% calf serum, 0.2 mM PMSF, 0.02% sodium azide. After removing the blocking buffer, washing is carried out once with PBS.
(§6) 3. 100 μl each of cell culture supernatant of correspondingly transfected and expressing COS cells are pipetted into the wells, Incubation is carried out for 2 hours at room temperature. After removing the cell culture supernatant, washing is carried out once with PBS.
4. 20 μl of binding buffer are added to the wells. […]

P-selectin = assay: HL60 cell adhesion assay on recombinant, soluble P-selectin-IgG1 fusion protein; type: cell-based; conditions: read-out: IC 50 values for P-selectin
From the text: as §1, §2
Preparation of P-selectin-IgG1
To prepare the soluble P-selectin-lgG1 fusion protein, the genetic construct "CD62Rg" published by Aruffo et al., 1991 is used. The further procedure corresponds to the preparation of L-selectin-IgG1 presented under A1.
Aruffo, A., Kolanus, W., Walz, G., Fredman, P. and Seed, B. 1991. CD62/-P-Selectin recognition of myeloid and tumor cell sulfatides. Cell 67, 35-44.
as §3, §4, §5, §6
4. 20 μl of binding buffer are added to the wells. The binding buffer has the composition: 50 mM HEPES, pH 7.5; 100 mM NaCl; 1 mg/ml BSA; 2 mM MgCl2; 1 mM CaCl2; 3 mM MnCl2; 0.02% sodium azide; 0.2 mM PMSF. To do this, 5 μl of the test substance are pipetted, mixed by swirling the plate and incubated at room temperature for 10 min.
5. 50 ml of a HL60 cell culture having 200,000 cells/ml are centrifuged at 350 g for 4 min. The pellet is resuspended in 10 ml of RPMI 1640 and the cells are centrifuged again. […]

[1] = tested on: adhesion of leukocytes to the endothelium; assay: Leukocyte adhesion in vivo, intravital microscopy in the rat (mesenterium, LPS-induced); conditions: SPRD (m) rat, LPS 15 mg/kg, vs untreated control
From the text: Leukocyte adhesion--Testing of the activity of the compounds according to the invention in vivo (intravital microscopy in the rat):
The induced adhesion of leukocytes is quantified in the mesenterium of the rat using an intravital microscopic investigation technique (Atherton A. and Born G. V. R., Quantitative investigations of the adhesiveness of circulating polymorphonuclear leukocytes to blood vessel walls. J. Physiol. 222, 447-474, 1972; Seiffge, D. Methoden zur Untersuchung der Rezeptor-vermittelten Interaktion zwischen Leukozyten und Endothelzellen im Entzundungsgeschehen [Methods for investigation of the receptor-mediated interaction between leukocytes and endothelial cells in inflammatory phenomena], in: Ersatz- und Erganzungsmethoden zu Tierversuchen in der biomedizinischen Forschung [Substitution and replacement methods for animal experiments in biomedical research], Schoffl, H. et al., (ed.) Springer, 1995 (in print)). Lasting anesthesia is initiated under inhalation ether anesthesia by intramuscular injection of urethane ([…] of body weight). After exposing vessels (femoral vein for the injection of substances and carotid artery for blood pressure measurement), catheters are tied into them. After this, the corresponding transparent tissue (mesenterium) is exposed by the standard methods known in the literature and arranged on the microscope stage and coated with warm liquid paraffin at 37° C. (Menger, M. D. and Lehr, H, A., Scope and perspectives of intravital microscopy-bridge over from in vitro to in vivo, Immunology Today 14, 519-522, 1993). […] The increased adhesion of leukocytes to the endothelium caused by this means is quantified by direct vital microscopy or with the aid of fluorescent dyes. All measuring operations are recorded by video camera and stored on a video recorder. Over a period of 60 minutes, the number of rolling leukocytes (i.e. all visibly rolling leukocytes which are slower than the flowing erythrocytes) and the number of leukocytes adhering to the endothelium (residence period longer than 5 seconds) is determined every 10 minutes. […]

[2] = tested on: open rabbit heart perfused with leukocytes; assay: Reperfusion model: adhesion of neutrophils in ischemia/reperfusion on the open rabbit heart (Langendorff)
Protocol: Reperfusion model for investigation of the effects of the adhesion of neutrophils in the course of ischemia/reperfusion on the open rabbit heart
The hearts are perfused at constant pressure according to the Langendorff technique with nutrient solution and also with/without leukocytes or active compound. Ischemia is then produced by tying off the left coronary artery (30 min). After reperfusion (30 min), the leukocyte accumulation is histologically assessed. In the course of the experiment, potentials and arrhythmias are additionally measured on 256 electrodes (total time of experiment about 90 min).

Molecule	IC50 (E-selectin)	IC50 (P-selectin)	inhibition (of leukocyte adhesion) ([1]; 1 mg/kg i.v.)	inhibition (of leukocyte adhesion) ([1]; 5 mg/kg i.v.)	inhibition (of leukocyte adhesion) ([1]; 10 mg/kg i.v.)	reduction of arrhythmias ([2]; in the range from about 1 μM)	leukocyte accumulation and arrhythmias ([2]; hearts perfused with leukocytes and active compound, vs untreated hearts)
C[C@@H]1O[C@@H](O[C@@H]2CCC[C@H]2OC(=O)N2CCC(C(=O)O)CC2)[C@@H](O)[C@H](O)[C@@H]1O [Compound 1e, N-Carbonyl-4-carboxypiperidyl-(1→2)-[(α-L-fucopyranosyl)-(1→1)]-(1R, 2R)-trans-1,2-cyclopentanediol]	3700 µM	2850 µM	–	–	–	–	–
C[C@@H]1O[C@@H](O[C@@H]2CCCC[C@H]2OC(=O)N2CCC(C(=O)O)CC2)[C@@H](O)[C@H](O)[C@@H]1O [Compound 3a, N-Carbonyl-4-carboxypiperidyl-(1→2)-[(α-L-fucopyranosyl)-(1→1)]-(1R, 2R)-trans-1,2-cyclohexanediol]	> 2000 µM	> 2000 µM	64%	69%	81%	considerable reduction of arrhythmias	–
chondroitin sulfate [reference compound]	–	–	–	–	–	–	reduced leukocyte accumulation and arrhythmias

Now from value to molecule, other results behind:

IC50 (E-selectin)	IC50 (P-selectin)	Molecule	inhibition (of leukocyte adhesion) ([1]; 1 mg/kg i.v.)	inhibition (of leukocyte adhesion) ([1]; 5 mg/kg i.v.)	inhibition (of leukocyte adhesion) ([1]; 10 mg/kg i.v.)	reduction of arrhythmias ([2]; in the range from about 1 μM)	leukocyte accumulation and arrhythmias ([2]; hearts perfused with leukocytes and active compound, vs untreated hearts)
1600 µM	7500 µM	C[C@@H]1O[C@@H](O[C@@H]2CCCC[C@H]2OC(=O)N2CCC(C(=O)O)(C(=O)O)CC2)[C@@H](O)[C@H](O)[C@@H]1O [Compound 3e, N-Carbonyl-4,4-dicarboxypiperidyl-(1→2)-[(α-L-fucopyranosyl)-(1→1)]-(1R, 2R)-trans-1,2-cyclohexanediol]	–	–	–	–	–
> 2000 µM	> 2000 µM	C[C@@H]1O[C@@H](O[C@@H]2CCCC[C@H]2OC(=O)N2CCCC(CC(C(=O)O)C(=O)O)C2)[C@@H](O)[C@H](O)[C@@H]1O (stereo partly drawn) [Compound 4b, [N-Carbonyl-(1,1-dicarboxyl-ethyl)-(2→3)-piperidyl]-(1→2)-[(α-L-fuco-pyranosyl)-(1→1)]-(1R, 2R)-trans-1,2-cyclohexanediol]	–	–	–	–	–
